Assay results taken from patent publication US20210130401A1, “PEPTIDOMIMETIC INHIBITORS OF THE WDR5-MLL INTERACTION” (THE REGENTS OF THE UNIVERSITY OF MICHIGAN, priority 2017, published 2021).
Where two headings read alike, the source gives them in different places. Starred links: 1 amine or outer side, 2 acyl side, 3 side chain; linkers in the order of their positions; H or OH if unused. Positions of bridges follow the written chain, without caps; N, C: chain ends. Non-standard residues stand in square brackets, D forms with d. Residues, ends and D or L forms follow the SMILES beside them. *: point of attachment. dαMeLys(Me) = CN(CCCC[C@@](C)(N[*:1])C(=O)[*:2])[*:3]; Orn(2-imidazolinyl) = N[C@@H](CCCNC1=NCCN1)C(=O)O; dαMeDab = C[C@](CCN[*:3])(N[*:1])C(=O)[*:2]; dPhg(2-OMe) = COc1ccccc1[C@@H](N)C(=O)O; dPhg(4-F) = N[C@@H](C(=O)O)c1ccc(F)cc1; dPhg(2-F) = N[C@@H](C(=O)O)c1ccccc1F; dPhg = N[C@@H](C(=O)O)c1ccccc1; Pyridin(2-yl) = c1ccc(*)nc1; dOrn = NCCC[C@@H](N)C(=O)O; Isobutyryl = CC(C)C(=O)*; Orn = NCCC[C@H](N)C(=O)O; dDap = NC[C@@H](N)C(=O)O; Ac5c = NC1(C(=O)O)CCCC1; Abu = CC[C@H](N)C(=O)O

Columns and labels:
WDR5 = target: T1, WDR5 (Homo sapiens, UniProt P61964); test: fluorescence polarization (FP) based competitive binding assay to WDR5 protein
T1 construct: N-terminal His-tagged WDR5 protein (residues 24-334), named WDR5Δ23; made in house; host or cells: E. coli Rosetta 2 (DE3)
Procedure: The plates were incubated at room temperature on a shaker for 3h, and then the mP values were measured using the Tecan Infinite M-1000 plate reader (Tecan U.S., Research Triangle Park, N.C.).

[1] = system: MOLM-13 leukemia cells carrying MLL-AF9 fusion; test: cell viability assay (WST-8), MOLM-13; assay type: cell-based; details: Homo sapiens, MOLM-13, 96 h
Procedure: To assess cell viability, MOLM-13 leukemia cells carrying MLL-AF9 fusion, MV4;11 leukemia cells carrying MLL-AF4 fusion or HL-60 leukemia cells carrying no MLL fusion were seeded 1×10^4 cell/well in 96-well plates and treated with an inhibitor for 4 days at different concentrations, in culture media containing 0.2% DMSO as the final concentration. Cell viability was determined using the WST-8 cell proliferation assay kit (Dojindo Molecular Technologies) according to manufacturer's instructions. Three independent experiments in triplicates were performed.

[2] = calculated from IC50 by published equation, read-out: Binding Affinity to WDR5 Ki ± SD
[3] = read-out: Binding Affinity to WDR5 IC50 ± SD

## CC[C@@H]1NC(=O)[C@H](CCCNc2ccccn2)NC(=O)[C@](C)(NC(=O)C(C)C)CCNC(=O)[C@@H](c2ccccc2)NC1=O [Cpd. No. 12, N-((3R,6S,9S,12R)-6-ethyl-12-methyl-2,5,8,11-tetraoxo-3-phenyl-9-(3-(pyridin-2-ylamino)propyl)-1,4,7,10-tetraazacyclotetradecan-12-yl)isobutyramide] (Isobutyryl-[dαMeDab][Orn](Pyridin(2-yl))[Abu][dPhg]; lactam 1-C)
WDR5
  IC50: 3.25 nM
  Ki: < 1 nM
[1]; read-out: MOLM-13 IC50 (μM)
  IC50: > 10 µM

## CC[C@@H]1NC(=O)[C@H](CCCNC2=NCCN2)NC(=O)[C@](C)(NC(=O)C(C)C)CCNC(=O)[C@@H](c2ccccc2)NC1=O [Cpd. No. 17, N-((3R,6S,9S,12R)-9-(3-((4,5-dihydro-1H-imidazol-2-yl)amino)propyl)-6-ethyl-12-methyl-2,5,8,11-tetraoxo-3-phenyl-1,4,7,10-tetraazacyclotetradecan-12-yl)isobutyramide] (Isobutyryl-[dαMeDab][Orn(2-imidazolinyl)][Abu][dPhg]; lactam 1-C)
WDR5
  IC50: 2.4 nM
  Ki: < 1 nM
[1]; read-out: MOLM-13 IC50 (μM)
  IC50: 0.088 µM

## CC[C@@H]1NC(=O)[C@H](CCCNC(=N)N)NC(=O)[C@](C)(NC(=O)C(C)C)CCNC(=O)[C@@H](c2ccc(F)cc2)NC1=O [Cpd. No. 53, N-((3R,6S,9S,12R)-6-ethyl-3-(4-fluorophenyl)-9-(3-guanidinopropyl)-12-methyl-2,5,8,11-tetraoxo-1,4,7,10-tetraazacyclotetradecan-12-yl)isobutyramide] (Isobutyryl-[dαMeDab]R[Abu][dPhg(4-F)]; lactam 1-C)
WDR5
  IC50: 0.878 nM
  Ki: < 1 nM
[1]; read-out: MOLM-13 IC50 (μM)
  IC50: 0.38 µM

## CC[C@@H]1NC(=O)[C@H](CCCNC(=N)N)NC(=O)[C@](C)(NC(=O)C(C)C)CCCCN(C)C(=O)[C@@H](c2ccccc2)NC1=O [Cpd. No. 65, N-((3R,6S,9S,12R)-6-ethyl-9-(3-guanidinopropyl)-1,12-dimethyl-2,5,8,11-tetraoxo-3-phenyl-1,4,7,10-tetraazacyclohexadecan-12-yl)isobutyramide] (Isobutyryl-[dαMeLys(Me)]R[Abu][dPhg]; lactam 1-C)
WDR5
  IC50: 1.6 ± 0.3 nM
  Ki: < 1 nM

## CC[C@@H]1NC(=O)[C@H](CCCNC(=N)N)NC(=O)[C@](C)(NC(=O)C(C)C)CCCCN(C)C(=O)[C@@H](c2ccc(Cl)cc2)NC1=O [Cpd. No. 67, N-((3R,6S,9S,12R)-3-(4-chlorophenyl)-6-ethyl-9-(3-guanidinopropyl)-1,12-dimethyl-2,5,8,11-tetraoxo-1,4,7,10-tetraazacyclohexadecan-12-yl)isobutyramide]
WDR5
  IC50: 1.5 ± 0.9 nM
  Ki: < 1 nM

## CC[C@@H]1NC(=O)[C@H](CCCNC(=N)N)NC(=O)[C@H](NC(=O)C(C)C)CNC(=O)[C@@H](c2ccccc2)NC1=O [Cpd. No. 71, N-((3R,6S,9S,12R)-6-ethyl-9-(3-guanidinopropyl)-2,5,8,11-tetraoxo-3-phenyl-1,4,7,10-tetraazacyclotridecan-12-yl)isobutyramide] (Isobutyryl-[dDap]R[Abu][dPhg]; lactam 1-C)
WDR5; [2]
  Ki: 242 ± 33 nM
WDR5; [3]
  IC50: 1190 ± 160 nM

## CC[C@@H]1NC(=O)[C@H](CCCNC(=N)N)NC(=O)[C@H](NC(=O)C(C)C)CCCNC(=O)[C@@H](c2ccccc2)NC1=O [Cpd. No. 72, N-((3R,6S,9S,12R)-6-ethyl-9-(3-guanidinopropyl)-2,5,8,11-tetraoxo-3-phenyl-1,4,7,10-tetraazacyclopentadecan-12-yl)isobutyramide] (Isobutyryl-[dOrn]R[Abu][dPhg]; lactam 1-C)
WDR5; [2]
  Ki: 32.9 ± 5.3 nM
WDR5; [3]
  IC50: 164 ± 26 nM

## CC[C@@H]1NC(=O)[C@H](CCCNC(=N)N)NC(=O)[C@H](NC(=O)C(C)C)CCCCNC(=O)[C@@H](c2ccccc2)NC1=O [Cpd. No. 73, N-((3R,6S,9S,12R)-6-ethyl-9-(3-guanidinopropyl)-2,5,8,11-tetraoxo-3-phenyl-1,4,7,10-tetraazacyclohexadecan-12-yl)isobutyramide] (Isobutyryl-[dK]R[Abu][dPhg]; lactam 1-C)
WDR5; [2]
  Ki: 60.3 ± 11.9 nM
WDR5; [3]
  IC50: 298 ± 58 nM

## CC[C@@H]1NC(=O)[C@H](CCCNC(=N)N)NC(=O)[C@](C)(NC(=O)C(C)C)CCNC(=O)[C@@H](c2ccccc2F)NC1=O [Cpd. No. 79, N-((3R,6S,9S,12R)-6-ethyl-3-(2-fluorophenyl)-9-(3-guanidinopropyl)-12-methyl-2,5,8,11-tetraoxo-1,4,7,10-tetraazacyclotetradecan-12-yl)isobutyramide] (Isobutyryl-[dαMeDab]R[Abu][dPhg(2-F)]; lactam 1-C)
WDR5
  IC50: 0.32 nM
  Ki: < 1 nM
[1]; read-out: MOLM-13 IC50 (μM)
  IC50: 0.35 µM

## CC[C@@H]1NC(=O)[C@H](CCCNC(=N)N)NC(=O)[C@](C)(NC(=O)C(C)C)CCNC(=O)[C@@H](c2cccc(F)c2)NC1=O [Cpd. No. 80, N-((3R,6S,9S,12R)-6-ethyl-3-(3-fluorophenyl)-9-(3-guanidinopropyl)-12-methyl-2,5,8,11-tetraoxo-1,4,7,10-tetraazacyclotetradecan-12-yl)isobutyramide]
WDR5
  IC50: 2.87 nM
  Ki: < 1 nM
[1]; read-out: MOLM-13 IC50 (μM)
  IC50: 0.42 µM

## CC[C@@H]1NC(=O)[C@H](CCCNC(=N)N)NC(=O)[C@](C)(NC(=O)C(C)C)CCNC(=O)[C@@H](c2cccc3ccccc23)NC1=O [Cpd. No. 81, N-((3R,6S,9S,12R)-6-ethyl-9-(3-guanidinopropyl)-12-methyl-3-(naphthalen-1-yl)-2,5,8,11-tetraoxo-1,4,7,10-tetraazacyclotetradecan-12-yl)isobutyramide]
[1]; read-out: MOLM-13 IC50 (μM)
  IC50: 1.29 µM

## CC[C@@H]1NC(=O)[C@H](CCCNC(=N)N)NC(=O)[C@](C)(NC(=O)C(C)C)CCNC(=O)[C@@H](c2ccccc2Cl)NC1=O [Cpd. No. 83, N-((3R,6S,9S,12R)-3-(2-chlorophenyl)-6-ethyl-9-(3-guanidinopropyl)-12-methyl-2,5,8,11-tetraoxo-1,4,7,10-tetraazacyclotetradecan-12-yl)isobutyramide]
[1]; read-out: MOLM-13 IC50 (μM)
  IC50: 2.6 µM

## CC(C)C(=O)N[C@]1(C)CCNC(=O)[C@@H](c2ccccc2)NC(=O)C2(CCCC2)NC(=O)[C@H](CCCNC(=N)N)NC1=O [Cpd. No. 86, N-((8S,11R,16R)-8-(3-guanidinopropyl)-11-methyl-7,10,15,18-tetraoxo-16-phenyl-6,9,14,17-tetraazaspiro[4.13]octadecan-11-yl)isobutyramide] (Isobutyryl-[dαMeDab]R[Ac5c][dPhg]; lactam 1-C)
[1]; read-out: MOLM-13 IC50 (μM)
  IC50: > 10 µM

## CC[C@@H]1NC(=O)[C@H](CCCNC(N)NC)NC(=O)[C@](C)(NC(=O)C(C)C)CCNC(=O)[C@@H](CC2CCCCC2)NC1=O (stereo partly drawn) [Cpd. No. 87, N-((3R,6S,9S,12R)-9-(3-((amino(methylamino)methyl)amino)propyl)-3-(cyclohexylmethyl)-6-ethyl-12-methyl-2,5,8,11-tetraoxo-1,4,7,10-tetraazacyclotetradecan-12-yl)isobutyramide]
[1]; read-out: MOLM-13 IC50 (μM)
  IC50: 0.46 µM

## CC[C@H](C)[C@@H]1NC(=O)[C@H](CCCNC(=N)N)NC(=O)[C@](C)(NC(=O)C(C)C)CCNC(=O)[C@@H](c2ccccc2)NC1=O [Cpd. No. 90, N-((3R,6S,9S,12R)-6-((S)-sec-butyl)-9-(3-guanidinopropyl)-12-methyl-2,5,8,11-tetraoxo-3-phenyl-1,4,7,10-tetraazacyclotetradecan-12-yl)isobutyramide] (Isobutyryl-[dαMeDab]RI[dPhg]; lactam 1-C)
[1]; Table 2A, 4 days treatment, read-out: MOLM-13 IC50
  IC50: > 10 µM

## CC[C@@H]1NC(=O)[C@H](CCCNC2=NCC(F)(F)CN2)NC(=O)[C@](C)(NC(=O)C(C)C)CCNC(=O)[C@@H](CC2CCCCC2)NC1=O [Cpd. No. 95, N-((3R,6S,9S,12R)-3-(cyclohexylmethyl)-9-(3-((5,5-difluoro-1,4,5,6-tetrahydropyrimidin-2-yl)amino)propyl)-6-ethyl-12-methyl-2,5,8,11-tetraoxo-1,4,7,10-tetraazacyclotetradecan-12-yl)isobutyramide]
[1]; read-out: MOLM-13 IC50 (μM)
  IC50: > 10 µM

## CC[C@@H]1NC(=O)[C@H](CCCNC2=NCC(C)(C)CN2)NC(=O)[C@](C)(NC(=O)C(C)C)CCNC(=O)[C@@H](CC2CCCCC2)NC1=O [Cpd. No. 96, N-((3R,6S,9S,12R)-3-(cyclohexylmethyl)-9-(3-((5,5-dimethyl-1,4,5,6-tetrahydxopyrimidin-2-yl)amino)propyl)-6-ethyl-12-methyl-2,5,8,11-tetraoxo-1,4,7,10-tetraazacyclotetradecan-12-yl)isobutyramide]
[1]; read-out: MOLM-13 IC50 (μM)
  IC50: > 10 µM

## CC[C@@H]1NC(=O)[C@H](CCCNC2=NCC(C)CN2)NC(=O)[C@](C)(NC(=O)C(C)C)CCNC(=O)[C@@H](CC2CCCCC2)NC1=O (stereo partly drawn) [Cpd. No. 97, N-((3R,6S,9S,12R)-3-(cyclohexylmethyl)-6-ethyl-12-methyl-9-(3-((5-methyl-1,4,5,6-tetrahydropyrimidin-2-yl)amino)propyl)-2,5,8,11-tetraoxo-1,4,7,10-tetraazacyclotetradecan-12-yl)isobutyramide]
[1]; read-out: MOLM-13 IC50 (μM)
  IC50: > 10 µM

## CC[C@@H]1NC(=O)[C@H](CCCNC(=N)N)NC(=O)[C@](C)(NC(=O)C(C)C)CCNC(=O)[C@@H](c2ccccc2OC)NC1=O [Cpd. No. 99, N-((3R,6S,9S,12R)-6-ethyl-9-(3-guanidinopropyl)-3-(2-methoxyphenyl)-12-methyl-2,5,8,11-tetraoxo-1,4,7,10-tetraazacyclotetradecan-12-yl)isobutyramide] (Isobutyryl-[dαMeDab]R[Abu][dPhg(2-OMe)]; lactam 1-C)
[1]; read-out: MOLM-13 IC50 (μM)
  IC50: 1.6 µM

## CC[C@@H]1NC(=O)[C@H](CCCNC(=N)N)NC(=O)[C@](C)(NC(=O)C(C)C)CCNC(=O)[C@@H](c2ccc(Cl)cc2)NC1=O [Cpd. No. 100, N-((3R,6S,9S,12R)-3-(4-chlorophenyl)-6-ethyl-9-(3-guanidinopropyl)-12-methyl-2,5,8,11-tetraoxo-1,4,7,10-tetraazacyclotetradecan-12-yl)isobutyramide]
[1]; read-out: MOLM-13 IC50 (μM)
  IC50: 2.2 µM
